Values after ≈ are worked out from the molar mass of the structure shown. Like-named read-outs stand apart in the source and are kept apart here.
What was measured:
mushroom tyrosinase [1] = target: T1, mushroom tyrosinase (Agaricus bisporus, UniProt C7FF04); assay: Tyrosinase inhibition test (in vitro acellular depigmenting activity); format: biochemical; settings: polyphenol oxidase (PPO) function; reference molecules for the test
T1 construct: purchased Sigma T-3824

[2] = Antioxidant capacity by chemiluminescence (Photochem Analytik Jena); settings: for μg of sample for 1 μg of Trolox: Trolox equivalent, lower = stronger antioxidant
Method: This test is used to determine the antioxidant capacity of the molecules. It is a method that generates free radicals by a photochemical signal. The intensity of the oxidation is 1000 times greater than that obtained under normal conditions.
The detection is carried out by chemiluminescence. It enables the evaluation of hydrosoluble and liposoluble anti-oxidant molecules or extracts.
The results are expressed respectively in equivalent quantity of vitamin C or Trolox (6-hydroxy-2,5,7,8-tetramethylchroman-2-carboxylic acid). The sensitivity is of the order of a nanomole.
The antioxidant activity studied in this test represents the capacity to trap specifically superoxide anions by chemiluminescence.
The quantified results are expressed in Trolox equivalent (standard), i.e. in “μg of product for 1 μg of Trolox”. This signifies that a quantity×of sample is needed to obtain an activity equivalent to the activity detected for 1 μg of standard. It is an anti-oxidant power relative to a reference, which makes it possible to disregard the concentration tested.
The superoxide radical: 02^0− is generated by a photochemical reaction: L+hv (UV)+O2→L*O2→L^0++O2^0−
A part of the superoxide anions is quenched by the anti-oxidants. The remaining free radicals are quantified by chemiluminescence. L^0++O2^0−→N2+AP*^2−→AP^2−+hv (luminescence)

[3] = test system: P. acnes IP53.117 ATCC6919; assay: Minimal inhibitory concentration (MIC), microdilution; format: cell-based, Propionibacterium acnes; settings: for MIC: Cutibacterium acnes, P. acnes IP53.117 ATCC6919
Method: (§1) E) Determination of the Minimal Inhibitory Concentration (MIC): This test is used to determine the antibacterial activity of a compound. Tests are carried out with 4 bacterial strains using the principle of microdilution. The MIC are determined by micromethod in liquid medium. The successive dilutions according to the products tested in the culture broth (Trypcase soy) are carried out on 96 well microplates in a final volume of 0.1 ml. The wells are seeded with 0.01 ml of bacterial suspensions titrated at around 10^7 UFC/ml. The microplates are incubated under optimal growth conditions and the MIC is read visually.

[4] = Protection of linoleic acid following a UV stress (Fenton conditions, MDA-TBA assay); design: % Protection Linoleic acid under UV/Fenton: concentration or dose not given beside the values; settings: UV + H2O2 + iron II
Source text: D) Test of Protection of Linoleic Acid Following a UV Stress. Target: Protection of Linoleic Acid Under Fenton Conditions, UV Irradiation Linoleic acid belongs to the family of polyunsaturated fatty acids (PUFA) (AGPI). Sensitive to oxidation, linoleic acid is a favoured target for oxygenated free radicals (OFR) in biological media. When biological membranes are exposed to an oxidative stress, the components the most affected are the phospholipids constituted of PUFA and cholesterol. Their degradation leads to lipidic peroxidation and generally to destructuring. Lipidic peroxidation is a self-catalysing process which generally involves OFR. Lipidic peroxidation is in part responsible for skin ageing. The method employed to evaluate lipid peroxidation is based on the coupling of thiobarbituric acid (TBA) and secondary degradation products leading to coloured compounds detectable by spectrofluorometry. The essential secondary compound of final degradation is malondialdehyde, MDA. MDA is a carcinogenic and mutagenic aldehyde, it acts on proteins and DNA. The sample to be tested is placed in contact with linoleic acid in a weight/weight ratio. The sample undergoes an MED (Minimal Erythemal Dose) irradiation under Fenton conditions, namely in the presence of H202 and iron II in a solar simulator. Following irradiation, the reaction mixture is taken up in methanol and derivatised at 90° C. with TBA. Chromogene, the MDA-TBA complex, representative of the equimolar production of MDA is assayed by fluorimetry (excitation at 525 nm, emission at 549 nm). The results are expressed in fluorescence units, as a function of a MDA-TBA control range then expressed as concentration of the MDA-TBA complex. Then, the percentage of the starting MDA/linoleic acid (LA) ratio is determined. Then the percentage of protection of linoleic acid is determined. The product assay is expressed as weight/weight ratio, in other words in weight percentage with respect to the total quantity of linoleic acid. The maximal MDA level is determined by the condition UV+H202+iron II (F). The percentage of protection of linoleic acid represents: the % ratio of MDA under maximal stress conditions untreated over the % of MDA under stress conditions treated by the product.

[5] = test system: Staphylococcus aureus IP4.83 ATCC6538; assay: Minimal inhibitory concentration (MIC), microdilution; format: cell-based
Method: as §1

[6] = test system: Staphylococcus epidermidis IP6821; assay: as above; format: cell-based
Method: as §1

[7] = test system: Escherichia coli IP53126 ATCC8739; assay: as above; format: cell-based
Method: as §1

mushroom tyrosinase [8] = target: T1, mushroom tyrosinase; assay: Tyrosinase inhibition test (in vitro acellular depigmenting activity); format: biochemical; settings: for Tyrosinase depigmenting activity result: class symbol, assay from 250 to 150 μM, overall tyrosinase activity (MPMOg), L-tyrosine substrate
Source text: A) Determination of the Depigmenting Activity in an in vitro Acellular Test: Tyrosinase Inhibition Test)
This test is used to evaluate the depigmenting activity of the molecules tested. Tyrosinase is a limiting enzyme in melanogenesis.
It belongs to the family of oxydoreductases. It has in particular the function: monophenol monooxygenase (MPMO) and polyphenol oxidase (PPO).
It is synthesised at the level of the melanocytes. It is activated during its migration towards melanosome […]. It transforms tyrosine into DOPA then dopaquinone, which leads in fine to a polymerisation, i.e. a production of pigments (see diagram below).
The substrate: L-tyrosine, is transformed into L-DOPA by the monophenol mono oxygenase function which is transformed by the polyphenol oxidase function from tyrosinase into dopaquinone. The latter is going to self-oxidise into dopachrome which is measured by spectrophotometry at 490 nm.
More precisely, it is the overall tyrosinase activity (MPMOg) which is measured since it is the dopachrome in fine that is assayed. Thus the products tested on MPMOg (=measurement of the activity on PPO and MPMO) can cumulate the inhibition of the 2 functions, • inhibiting uniquely the MPMO function stricto sensus (transformation of tyrosine into DOPA) as a complement to the PPO test, • could inhibit PPO uniquely. General Experimental Conditions:

B16-F10 cells = assay: Melanin assay test in B16-F10 cells; format: cell-based, murine; settings: Mus musculus, read-out: B16 activity results -% at X μM
Method: B) Melanin Assay Test in B16-F10 Cells:
This involves a test of measuring the synthesis of melanin by colorimetric assay on a murine melanoma cell line: the B16-F10 line. This test makes it possible to evaluate the depigmenting power of active ingredients.
The B16-F10 cells are cultured in 96-well plates in DMEM medium supplemented with FCS (foetal calf serum), and incubated for 24 hours at 37° C., 5% CO2. The cells are then stimulated with 0.1 μM α-MSH (to stimulate the synthesis of melanin, the stimulation observed is around 150%) and treated for 72 hours with the active ingredients to be tested. Each concentration of active ingredient is tested at least in triplicate. The total melanin followed by the intracellular melanin dissolved in the lysis buffer are then assayed by absorbance reading at 405 nm. The total proteins are assayed in the lysate and the results are expressed in mg melanin/mg proteins. The percentage of activity is calculated as follows: […]
A negative value indicates an inhibition, whereas a positive value indicates an induction of the synthesis of melanin.
• B16-F10 cell line between P10 and P20 (murine melanocytes) (ATCC, CRL-6475)
Reagents: • DMEM without phenol red (GibcoBRL, 31053-028), 200 mM Glutamax-I Supplement (GibcoBRL, 35050-038), D-PBS (GibcoBRL, 14190-094), Foetal calf serum (Invitrogen, 10270-098), Trypsine-EDTA (GibcoBRL, 25300-054), NaOH (Sigma, S8045-500G), DMSO (Sigma, 471267-1L), Nle, Phe—Melanocyte Stimulating Hormone (Sigma, M-8764), Melanin (Sigma, M-0418), BCA-Copper (Sigma, B9643 and C2284), BSA (Sigma, P0914) C) Test for the Study of the Antioxidant Capacity by Chemiluminescence (Photochem Analytik Jena) Principle: […]

T1 sequence (C7FF04 1-392 limits assumed): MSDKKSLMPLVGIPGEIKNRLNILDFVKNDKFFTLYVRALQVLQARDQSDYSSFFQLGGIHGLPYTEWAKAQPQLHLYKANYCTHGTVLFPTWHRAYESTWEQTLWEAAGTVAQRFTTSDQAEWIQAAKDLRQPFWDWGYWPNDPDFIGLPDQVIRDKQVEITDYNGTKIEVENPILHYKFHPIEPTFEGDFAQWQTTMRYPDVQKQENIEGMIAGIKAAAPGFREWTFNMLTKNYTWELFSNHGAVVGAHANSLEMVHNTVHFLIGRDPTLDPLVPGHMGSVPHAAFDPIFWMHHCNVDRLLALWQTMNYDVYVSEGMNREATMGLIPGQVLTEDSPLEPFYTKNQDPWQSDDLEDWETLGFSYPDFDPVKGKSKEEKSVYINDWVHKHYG

| IC50 (mushroom tyrosinase [1]) [µM] | MIC [3] [µg/mL] | MIC [5] [µg/mL] | MIC [6] [µg/mL] | MIC [7] [µg/mL] | SMILES | Activity (antioxidant, interpretation scale) ([2]; reference products of the interpretation scale) | antibacterial activity against Propionibacterium acnes (in words) [3] | % Protection Linoleic acid under UV/Fenton [4] [%] | μg of sample for 1 μg of Trolox [2] | Tyrosinase depigmenting activity result (mushroom tyrosinase [8]) | inhibition at 10 µM (B16-F10 cells; B16-F10, 72 h) [%] | inhibition at 20 µM (B16-F10 cells; B16-F10, 72 h) [%] | IC50 (mushroom tyrosinase [8]) [µM] | inhibition at 73 µM (B16-F10 cells; B16-F10, 73 μM, α-MSH stimulated, 72 hours, negative value = inhibition) [%] |
| --- | --- | --- | --- | --- | --- | --- | --- | --- | --- | --- | --- | --- | --- | --- |
| 20 to 40 | – | – | – | – | O=C1O[C@H]([C@@H](O)CO)C(O)=C1O [Vitamin C, reference compound] | Very good (0.1 to 3.0) | – | – | – | – | – | – | – | – |
| – | 0.09 (≈ 0.23 µM) | 0.78 (≈ 2 µM) | 0.39 (≈ 0.999 µM) | 780 (≈ 2000 µM) | CCCCCCCCCCOc1cc(O)ccc1Sc1ccc(O)cc1O [Example 12, 4-(2-(decyloxy)-4-hydroxyphenylthio)benzene-1,3-diol] | – | strong antibacterial activity | 96 | 3.4 μg of sample for 1 μg of Trolox | – | – | – | – | – |
| – | 0.09 (≈ 0.248 µM) | 0.78 (≈ 2.15 µM) | 0.39 (≈ 1.08 µM) | 390 (≈ 1080 µM) | CCCCCCCCOc1cc(O)ccc1Sc1ccc(O)cc1O [Example 7, 4-(4-hydroxy-2-(octyloxy)phenylthio)benzene-1,3-diol] | – | strong antibacterial activity | 92 | 3.4 μg of sample for 1 μg of Trolox | + + + | 50 | – | – | – |
| – | 90 (≈ 190 µM) | 190 (≈ 400 µM) | 156 (≈ 329 µM) | – | CCCCCCCCCCCCCCCCOc1cc(O)ccc1Sc1ccc(O)cc1O [Example 13, 4-(2-(hexadecyloxy)-4-hydroxyphenylthio)benzene-1,3-diol] | – | – | 95 | 5.7 μg of sample for 1 μg of Trolox | – | – | – | – | – |
| – | – | – | – | – | [O-][S+](c1ccc(O)cc1O)c1ccc(O)cc1O [Example 25, 4,4′sulphinyldibenzene-1,3-diol] | – | – | 79 | 73 μg of sample for 1 μg of Trolox | + + + | – | – | 12 | 50 |

| SMILES | IC50 (mushroom tyrosinase [1]) [µM] | MIC [3] [µg/mL] | MIC [5] [µg/mL] | MIC [6] [µg/mL] | MIC [7] [µg/mL] | Activity (antioxidant, interpretation scale) ([2]; reference products of the interpretation scale) | antibacterial activity against Propionibacterium acnes (in words) [3] | % Protection Linoleic acid under UV/Fenton [4] [%] | μg of sample for 1 μg of Trolox [2] | Tyrosinase depigmenting activity result (mushroom tyrosinase [8]) | inhibition at 10 µM (B16-F10 cells; B16-F10, 72 h) [%] | inhibition at 20 µM (B16-F10 cells; B16-F10, 72 h) [%] | IC50 (mushroom tyrosinase [8]) [µM] | inhibition at 73 µM (B16-F10 cells; B16-F10, 73 μM, α-MSH stimulated, 72 hours, negative value = inhibition) [%] |
| --- | --- | --- | --- | --- | --- | --- | --- | --- | --- | --- | --- | --- | --- | --- |
| CCCCOc1cc(O)ccc1Sc1ccc(O)cc1O [Example 5, 4-(2-butoxy-4-hydroxyphenylthio)benzene-1,3-diol] | – | 3 (≈ 9.79 µM) | 6 (≈ 19.6 µM) | 3 (≈ 9.79 µM) | – | – | – | 89 | 2.8 μg of sample for 1 μg of Trolox | + + + | – | 27 | – | – |
